Measured values published in patent US20250163057A1, “DCN-1 MODULATING COMPOUNDS AND METHODS OF USE THEREOF” (Cellarity, Inc., priority 2023, published 2025).
Read-outs that look alike come from different tables or passages of the source.

Columns and labels:
[1] = molecular target: DCN1 (DCUND1) protein PONY domain (Homo sapiens (Human), UniProt Q96GG9); assay: TR-FRET assay, DCN1 binding with FAM-labeled probe
Method in brief: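 TR-FRET ratio (Tb-DCN1 to FAM-probe) read at 1, 5 and 24 hrs after compound addition. Protein: recombinant PONY domain from E. coli, biotinylated and coupled to streptavidin terbium. Either 5 nM DCN1 with 20 nM FAM-probe, or 0.31 nM DCN1 with 100 nM FAM-labelled plus 800 nM unlabelled probe.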

[2] = system: Cullin-3 (CUL3) neddylation; assay: AlphaLISA assay for Cullin-3 (CUL3) neddylation in TF 1 cells; assay type: cell-based; conditions: 3 hours treatment
Method in brief: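 Neddylated CUL3 was quantified by AlphaLISA in lysates of TF 1 cells exposed for 3 h to test compound in IMDM without supplements. Percent inhibition set between vehicle and 1 μM DI-1548 positive control; IC50 derived by Hill-equation fitting of dose-response curves.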

[3] = 24 hr after treatment with compound, read-out: TR FRET IC50 24 hr
[4] = TR FRET IC50 1 hr (nM), 1 hr after treatment with compound
[5] = read-out: TR FRET IC50 1 hr, 1 hr after treatment with compound

Chain of DCN1 (DCUND1) protein PONY domain (Q96GG9 60-248): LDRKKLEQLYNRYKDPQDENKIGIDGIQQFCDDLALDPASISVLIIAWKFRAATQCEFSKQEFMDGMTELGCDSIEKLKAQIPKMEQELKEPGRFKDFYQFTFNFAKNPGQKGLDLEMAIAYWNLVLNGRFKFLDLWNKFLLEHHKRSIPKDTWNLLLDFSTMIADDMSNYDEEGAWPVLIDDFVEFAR

Row | SMILES | IC50 [1, 3] | IC50 [1, 4] | IC50 ([2]; Homo sapiens, TF-1, 3 h) | IC50 [2] | IC50 [1, 5]
1 | CCN1C(=O)[C@H](NC(=O)c2cccc(C(F)(F)F)c2)[C@H](c2ccc(F)cc2)c2c(C(=O)N3CCC[C@H]3C#N)nn(-c3cccc(OCCN4CCC5(CC4)COC5)c3)c21 [Compound I-616] | 1000 to 3000 nM | 1000 to 3000 nM | > 1000 nM | – | –
2 | CCN1C(=O)[C@@H](NC(=O)c2cccc(C(F)(F)F)c2)[C@@H](C2CC2)c2c(C(=O)N(CC#N)C3CC3)nn(-c3ccccc3)c21 [Compound I-619] | ≤ 200 nM | 1000 to 3000 nM | 100 to 1000 nM | – | –
3 | CCN1C(=O)[C@@H](NC(=O)c2cccc(C(F)(F)F)c2)[C@@H](C2CC2)c2c(C(=O)N3[C@H](C)CC[C@H]3C#N)nn(C3CCOCC3)c21 [Compound I-621] | 1000 to 3000 nM | 1000 to 3000 nM | > 1000 nM | – | –
4 | CCN1C(=O)[C@@H](NC(=O)c2cccc(C(F)(F)F)c2)[C@@H](c2ccc(F)cc2)c2c(CN3C(=O)CC[C@H]3C#N)nn(-c3ccccc3)c21 [Compound I-622, N-((4S,5S)-3-(((S)-2-cyano-5-oxopyrrolidin-1-yl)methyl)-7-ethyl-4-(4-fluorophenyl)-6-oxo-1-phenyl-4,5,6,7-tetrahydro-1H-pyrazolo[3,4-b]pyridin-5-yl)-3-(trifluoromethyl)benzamide] | 1000 to 3000 nM | 1000 to 3000 nM | > 1000 nM | – | –
5 | CCN1C(=O)[C@@H](NC(=O)c2cccn(C3CC3)c2=O)[C@@H](C2CC2)c2c(C(=O)N3[C@H](C#N)C[C@H]4C[C@H]43)nn(C3CCOCC3)c21 [Compound I-624] | 200 to 1000 nM | 200 to 1000 nM | – | ≤ 100 nM | –
6 | CCN1C(=O)[C@@H](NC(=O)c2cccn(C3CC3)c2=O)[C@@H](C2CC2)c2c(C(=O)N3[C@H](C#N)C[C@H]4C[C@H]43)nn(C3CCOCC3)c21 [Compound I-625] | 1000 to 3000 nM | 1000 to 3000 nM | – | > 1000 nM | –
7 | CCN1C(=O)[C@@H](NC(=O)c2cccc(C(F)(F)F)c2)[C@@H](C2CC2)c2c(C(=O)N3CC(=O)C[C@H]3C#N)nn(C3CCOCC3)c21 [Compound I-626, N-((4S,5S)-3-((S)-2-cyano-4-oxopyrrolidine-1-carbonyl)-4-cyclopropyl-7-ethyl-6-oxo-1-(tetrahydro-2H-pyran-4-yl)-4,5,6,7-tetrahydro-1H-pyrazolo[3,4-b]pyridin-5-yl)-3-(trifluoromethyl)benzamide] | ≤ 200 nM | – | ≤ 100 nM | – | ≤ 200 nM
8 | CCN1C(=O)[C@@H](NC(=O)COc2ccccc2)[C@@H](C2CC2)c2c(C(=O)N3[C@H](C#N)C[C@H]4C[C@H]43)nn(C3CCOCC3)c21 [Compound I-628] | 1000 to 3000 nM | 1000 to 3000 nM | 100 to 1000 nM | – | –
9 | CCN1C(=O)[C@@H](NC(=O)CN2CC(c3ccccc3)CC2=O)[C@@H](C2CC2)c2c(C(=O)N3[C@H](C#N)C[C@H]4C[C@H]43)nn(C3CCOCC3)c21 (stereo partly drawn) [Compound I-629] | 1000 to 3000 nM | 1000 to 3000 nM | > 1000 nM | – | –
10 | CCN1C(=O)[C@@H](NC(=O)c2cccc(C(F)(F)F)c2)[C@@H](c2ccc(F)cc2)c2c(C(=O)N3CCC=C3C#N)nn(C3CCOCC3)c21 [Compound I-631, N-((4S,5S)-3-(5-cyano-2,3-dihydro-1H-pyrrole-1-carbonyl)-7-ethyl-4-(4-fluorophenyl)-6-oxo-1-(tetrahydro-2H-pyran-4-yl)-4,5,6,7-tetrahydro-1H-pyrazolo[3,4-b]pyridin-5-yl)-3-(trifluoromethyl)benzamide] | ≤ 200 nM | 200 to 1000 nM | 100 to 1000 nM | – | –
11 | CCN1C(=O)[C@@H](NC(=O)c2ccc3[nH]cnc3c2)[C@@H](C2CC2)c2c(C(=O)N3[C@H](C#N)C[C@H]4C[C@H]43)nn(C3CCOCC3)c21 [Compound I-632] | 1000 to 3000 nM | 1000 to 3000 nM | > 1000 nM | – | –
12 | CCN1C(=O)[C@@H](NC(=O)c2cccc3c2CCCO3)[C@@H](C2CC2)c2c(C(=O)N3[C@H](C#N)C[C@H]4C[C@H]43)nn(C3CCOCC3)c21 [Compound I-633] | 200 to 1000 nM | 1000 to 3000 nM | 100 to 1000 nM | – | –
13 | CCN1C(=O)[C@@H](NC(=O)[C@@H]2CCN(Cc3ccccc3)C2)[C@@H](C2CC2)c2c(C(=O)N3[C@H](C#N)C[C@H]4C[C@H]43)nn(C3CCOCC3)c21 [Compound I-634] | 1000 to 3000 nM | 1000 to 3000 nM | > 1000 nM | – | –
14 | CCN1C(=O)[C@@H](NC(=O)c2cccc(C(F)(F)F)c2)[C@@H](c2ccc(F)cc2)c2c(CNC/C=C/C(=O)OC(C)(C)C)nn(-c3ccccc3)c21 [Compound I-635] | ≤ 200 nM | 1000 to 3000 nM | 100 to 1000 nM | – | –
15 | CCN1C(=O)[C@@H](NC(=O)c2cccc(C(F)(F)F)c2)[C@@H](c2ccc(F)cc2)c2c(CN(C)C/C=C/C(=O)N(C)C)nn(-c3ccccc3)c21 [Compound I-638] | ≤ 200 nM | – | > 1000 nM | – | ≤ 200 nM
